Assay results from article PMC12767106, “In Situ Assembly of Transformable Monopeptide on Activated Neutrophils Attenuates NETs‐Induced Hepatocellular Carcinoma Metastasis by Disrupting NE Nuclear Translocation” (Advanced Science, 2025).

Columns and labels:
[1] = target: T1, NE protein (Homo sapiens, UniProt P08246); experiment: Transformation kinetics by PpIX fluorescence after addition of NE protein; assay type: physicochemical; conditions: 24 h incubation, NE protein/peptide ligand about 1/1000, emission about 635 nm
T1 construct: purchased AkrivisBio MA-0156
T1 sequence (P08246 30-267): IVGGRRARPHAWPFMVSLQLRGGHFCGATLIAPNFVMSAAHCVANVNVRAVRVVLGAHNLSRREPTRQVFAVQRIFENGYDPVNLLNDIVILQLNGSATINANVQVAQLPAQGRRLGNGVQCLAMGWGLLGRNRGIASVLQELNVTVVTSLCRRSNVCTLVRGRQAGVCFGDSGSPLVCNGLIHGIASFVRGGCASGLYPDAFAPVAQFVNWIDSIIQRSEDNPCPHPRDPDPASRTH
Protocol: Submitted to Advanced Science temperature. Following the incubation, 10 µL of the solution was added to a copper mesh at 0 and 24 h. Filter paper was used to remove any extra droplets after an overnight stay. The samples were then stained for five minutes with uranyl acetate and then rinsed for one minute with water (10 µL). Finally, dried samples were observed by TEM (Talos 120C, Thermo Fisher Scientific, USA). DLS (Zetasizer Nano ZS, UK) was used to assess the solution for hydrodynamic size and zeta potential at 0 and 24 h following the incubation. Then, the nanofiber structure at 0 h and 24 h after incubation of FTP-NPs was examined with Circular Dichroism (CD) Spectra (Chirascan, UM, Britain). In addition, the variation of fluorescence emission spectra of PpIX by […]
transformation of FTP-NPs.
Pyrene molecules were employed as an indicator to determine the critical aggregation concentration (CAC) of nanoparticles by comparing the fluorescence of their third and first emissive peaks. […] The fluorescence spectra of pyrene (excitation, 335 nm) in different NPs dilutions were recorded. The fluorescence intensity ratio (I3/I1) of the third and first emissive peaks was measured for CAC calculation. […]

[2] = tested on: activated neutrophils; experiment: Recognition of activated versus resting neutrophils, flow cytometry of PpIX; assay type: cell-based, mouse; conditions: 50 µM, 1 h, neutrophils activated with PMA 100 nM, n = 3

## PpIX-GFFVLK-EAIPMSIPPEVK [FTP-NPs]
[1]
  fluorescence intensity of PpIX after addition of NE protein: 78.3%
[2]
  PpIX fluorescence of activated neutrophils relative to resting neutrophils: about 2.8 times
